The values below come from patent publication US11666600B2, “Methods for culturing and/or differentiating hematopoietic stem cells into progenitors and uses thereof” (HEMA-QUEBEC, priority 2015, dated 2023).

One assay deals with cord blood CD34+ cells. The assay can be described thus: Expansion of CD34+/CD41+ megakaryocytic progenitors from cord blood CD34+ cells. In kind it is cell-based, human. The following applies: 39° C. + PIC 35 nM; 14 days; ACF + OMPC; FIG. 4. The method, then:
Human cord blood (CB) was collected after obtaining written informed consent from donors, following our institutional Research Ethics Committee guidelines. Mononuclear cells (MNCs) were first separated over a Ficoll-Hypaque™ density gradient (GE Healthcare), then cryopreserved at −180° C. in Cryostor CS10™ medium ([…] Technologies). Thawed MNCs from six to eight CB were pooled before CD34 isolation. CB CD34+ cells were enriched by positive selection using the EasySep™ CD34 enrichment kit, according to the manufacturer's instructions ([…] Technologies). […]
(§1) Cellular counts and viability were determined by adding Solution 18 (Acridine Orange and DAPI solution, ChemomMetec) and using NucleoCounter™ NC-250 for detection (ChemomMetec).
(§2) For cells expanded in conditions favoring differentiation towards the MK lineage, surface markers were detected using the following antibodies: CD34-FITC, CD41a-APC and CD42b-PE. […] All samples were analyzed on an Accuri™ C6 flow cytometer (BD Biosciences), and raw data were analyzed with FCS Express 5 Flow Research Edition software from at least 15 000 viable cell events acquired for each sample. […]
Cellular counts and viability were determined as described in Example 6.5. […]

Assay [1] concerns Human G-CSF-mobilized peripheral blood CD34+ cells. As to the kind of experiment: Expansion of CD34+/CD41+ megakaryocytic progenitors from mobilized peripheral blood CD34+ cells. It counts as cell-based. The following applies: 39° C. + PIC 35 nM; 14 days; SFEM + BS1; FIG. 5. The method, then:
Human bone marrow and G-CSF-mobilized peripheral blood CD34+ cells were purchased from AllCells.
Human CD34+-enriched cells (purity 90%) were seeded in 24-well plates at 100 000 cells/mL in expansion medium consisting of either (1) StemSpan™ ACF (ACF; […] Technologies) supplemented with the OMPC cytokine cocktail (Robert et al., 2011), or (2) StemSpan™ SFEM ([…] Technologies) supplemented with the BS1 megakaryocyte expansion and differentiation cocktail (Cortin et al., 2005). OMPC consists of 35 ng/mL thrombopoietin (TPO; Feldan Therapeutics), 10 ng/mL stem cell factor (SCF; Peprotech), and 11 ng/mL human FMS-like tyrosine kinase 3 ligand (FLT3, Peprotech). […]
as §1, §2
(§3) Cellular counts and viability were determined as described in Example 6.5.

For assay [2], the system named is Human CB CD34+-enriched cells. The assay can be described thus: Culture of CB CD34+-enriched cells in erythroid differentiation medium. The following applies: 14 days. It counts as cell-based. The method, then:
Human cord blood (CB) was collected after obtaining written informed consent from donors, following our institutional Research Ethics Committee guidelines. Mononuclear cells (MNCs) were first separated over a Ficoll-Hypaque™ density gradient (GE Healthcare), then cryopreserved at −180° C. in Cryostor CS10™ medium ([…] Technologies). Thawed MNCs from six to eight CB were pooled before CD34 isolation. CB CD34+ cells were enriched by positive selection using the EasySep™ CD34 enrichment kit, according to the manufacturer's instructions ([…] Technologies).
Human CB CD34+-enriched cells (purity≥90%) were seeded in 24-well plates at 100 000 cells/mL in expansion medium consisting of Eave's basal medium (Iscove's modified Dulbecco's medium (IMDM), 20% BIT ([…] bovine serum albumin, 10 μg/mL bovine pancreatic insulin, 200 μg/mL human transferrin; […] Technologies), 0.1 mg/mL low-density lipoprotein ([…] Technologies), 50 μM 2-mercaptoethanol) supplemented with 20 ng/mL SCF (Peprotech) and 2 U/mL erythropoietin (EPO; Feldan Therapeutics). Cultures were maintained in a humidified atmosphere with 5% CO2 at 37° C. or 39° C., as indicated in the Examples. Cells were diluted at 300 000 cells/mL with fresh medium every 3 to 4 days.
as §1
For cells expanded in conditions favoring differentiation towards the erythroid lineage, surface markers were detected using the following antibodies: CD34-FITC, CD71-APC and CD235-PE. All antibodies were purchased from BD Biosciences, except for CD34-FITC which was purchased from Immunotech. 7AAD was used as a viability dye. All samples were analyzed on an Accuri™ C6 flow cytometer (BD Biosciences), and raw data were analyzed with FCS Express 5 Flow Research Edition software from at least 15 000 viable cell events acquired for each sample.
as §3

In assay [3] the test system is aryl hydrocarbon receptor (AhR) pathway. The following applies: Fares et al., 2014; cited from earlier work.

Turning to `Cl.Cn1nnc(-c2ccc3c(c2)[nH]c2nc(Cc4ccccc4)nc(N[C@H]4CC[C@H](N)CC4)c23)n1` [PIC, (1r,4r)-N1-(2-benzyl-7-(2-methyl-2H-tetrazol-5-yl)-9H-pyrimido[4,5-b]indol-4-yl)cyclohexane-1,4-diamine hydrochloride], the “combined use of mild hyperthermia and PIC on expansion of CD34+/CD41+ cells” value (with cord blood CD34+ cells; in assay [1]) was “synergistic effect” in each case. Besides, the “mild hyperthermia and PIC on expansion of CB CD34+ cells” value in assay [2] (39° C. + PIC 35 nM, erythroid differentiation medium, FIG. 12) was “additive effect”. In addition, the “mild hyperthermia and PIC on expansion of CB CD34+/CD71+ cells (erythroid progenitors)” value in assay [2] (39° C. + PIC 35 nM, erythroid differentiation medium, FIG. 13) is “additive effect”. Further, in assay [2] (PIC 35 nM, 37° C. and 39° C., FIG. 10), the “effect of addition of PIC on expansion of CD71+ erythroid precursors” value is listed as “decrease”. Moreover, in assay [2] (PIC 35 nM, 37° C. and 39° C., FIG. 11), the “effect of addition of PIC on total cell expansion” value is “decrease”. In assay [3], the “suppression of the aryl hydrocarbon receptor (AhR) pathway” value is “without acting as suppressors”.
